Experimental data: patent US9547017B2, “Genetically encoded fluorescent sensors for detecting intracellular signalling through diacylglycerol pathways” (MONTANA MOLECULAR LLC, priority 2012, dated 2017)
“Also recorded” adds a separate entry of the source. Values belong to the molecule of their own block, whether it stands above or below them.

Assays:
[1] = target: T1, P2Y11 receptor (Homo sapiens, UniProt Q96G91); test: Multiplex DAG2 and R-GECO1 sensors with P2Y11 receptor in HEK 293 cells; format: cell-based; set-up: expressed in transfected cells; host or cells: HEK 293; details: HEK cells expressing human P2Y11 receptor
T1 sequence (Q96G91 1-374): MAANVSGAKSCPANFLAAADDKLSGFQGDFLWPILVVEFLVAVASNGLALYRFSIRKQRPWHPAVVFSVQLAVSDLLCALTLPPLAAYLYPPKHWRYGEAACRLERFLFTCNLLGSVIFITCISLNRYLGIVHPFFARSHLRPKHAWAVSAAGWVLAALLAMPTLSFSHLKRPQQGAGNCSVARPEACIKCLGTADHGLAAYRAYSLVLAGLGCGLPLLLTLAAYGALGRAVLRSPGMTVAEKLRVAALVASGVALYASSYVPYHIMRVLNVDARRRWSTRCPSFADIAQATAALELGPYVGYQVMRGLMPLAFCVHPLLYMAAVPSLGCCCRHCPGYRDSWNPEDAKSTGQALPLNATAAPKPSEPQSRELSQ
Text: To explore whether multiplex sensors could be used to detect this distinct signaling pattern, we expressed the human P2Y11 receptor with combinations of the Downward DAG2, or Upward DAG2, and R-GECO1 sensors. […] (FIG. 8).

[2] = target: T1, P2Y11 receptor; details: reported in reference (29), different cell line; cited from earlier work
[3] = test system: DAG sensors; test: Effect of DMSO on the DAG assay; format: cell-based
Method: Many compound libraries are carried by DMSO, a vehicle that can cause artifacts in live cell assays. […] At moderate final concentrations of 0.1 to 1%, the DMSO produced no effect, while at higher concentrations artifactual, DMSO triggered changes in fluorescence did occur. The effect of DMSO on the DAG sensors was negligible at final concentrations of 0.1 to 1%, but detectable at 2% or greater.

[4] = test system: DAG sensors; test: Direct activation of DAG sensors in cells by phorbol ester PDBu; format: cell-based
Text: In transient expression it is possible to produce high concentrations of the protein-based sensor than the analyte itself [Falkenburger et al].
(§1) To test for the independence of the signals being detected by these sensors, we increased intracellular Ca2+ by applying ionomycin.

[5] = test system: intracellular Ca2+; test: Independence test: ionomycin raises intracellular Ca2+ in cells expressing Ca2+, DAG or PIP2 sensors; format: cell-based
Text: as §1

[6] = test system: DAG; test: DAG sensor fluorescence change on carbachol stimulation of co-expressed M1 receptor in HEK 293 cells (time-lapse imaging); format: cell-based, human
Text: These changes were easily detected in time-lapse imaging and occurred in all transfected cells with remarkably little cell to cell variability. […] The signals then returned to baseline quite slowly (t-170 seconds, FIG. 3C).

[7] = test system: PIP2 and DAG; test: Co-expressed PIP2r and DAG sensors, M1 receptor activation (PLC substrate and product); format: cell-based; details: PIP2r co-expressed with DAG sensor, FIG. 7A
Text: Stimulation of phospholipase C cleaves PIP2 and produces DAG. Co-expression of the Upward DAG2 or Downward DAG2 sensor with the PIP2r sensor provides a new view of both the substrate and product of phopholipase C (FIG. 7). To our knowledge, this is the first time that genetically encoded biosensors have been used to simultaneously measure substrate and product. M1 receptor activation produced a remarkable change in the intensity and distribution of both sensors. […] The onset of the response of the Upward and Downward DAG2 sensors, as well as PIP2r, is kinetically quite similar. However the return to baseline is considerably slower for the Downward DAG2 and PIP2r sensors (FIG. 7B).

[8] = test system: PIP2; test: PIP2 sensor response to M1 receptor activation; format: cell-based; details: FIGS. 6A and B
Text: Phospholipase C hydrolyses PIP2 to produce both DAG and IP3. To independently check the fidelity and kinetics of the DAG sensors, we created a red fluorescent PIP2 sensor by fusing the pleckstrin homology (PH) domain of PLCδ to two different components of the recently described dimerization-dependent red fluorescent proteins (26). Previous work has shown that the translocation of the PLCδ PH domain can be used to measure PIP2 turnover (27), and if the PH domains carry FRET pairs of fluorescent proteins a small change in FRET occurs when PLC is activated (28). […] Because this sensor relies on the fluorescence of one protein, rather than a FRET pair, it could be multiplexed with the green fluorescent DAG sensors for simultaneous measurement of both PIP2 and DAG in living cells. The amino acid sequences of this pair of constructs forming a novel PIP2 sensor are shown as SEQ ID NO:70 and SEQ ID NO:71, and the nucleotide sequences encoding them are shown as SEQ ID NO:72 and SEQ ID NO:73.

[9] = carbachol stimulation of the M1 receptor

Molecule: Nc1ncnc2c1ncn2[C@@H]1O[C@H](COP(=O)(O)OP(=O)(O)OP(=O)(O)O)[C@@H](O)[C@H]1O [ATP]
- Ca2+ response (R-GECO1) [1]: triggered a Ca2+ response; also recorded: transient increase in Ca2+
- PLC pathway signaling (Upward or Downward DAG2 sensors) [1]: triggers signaling via the phospholipase C pathway; also recorded: activating the PLC pathway
- signaling at the P2Y11 receptor as reported [2]: produces inositol phosphate turnover and transient Ca2+ signaling

Molecule: C[S+](C)[O-] [DMSO]
- effect of DMSO on the DAG sensors ([3]; 2% or greater): detectable
- effect of DMSO on the DAG sensors ([3]; final concentrations of 0.1 to 1%): negligible; also recorded: no effect

Molecule: CCCC(=O)O[C@@H]1[C@@H](C)[C@@]2(O)[C@@H](C=C(CO)C[C@]3(O)C(=O)C(C)=C[C@@H]23)[C@@H]2C(C)(C)[C@]12OC(=O)CCC [PDBu]
- additional change in sensor fluorescence on PDBu applied after carbachol ([4]; cells first stimulated with carbachol, then PDBu): additional increase in fluorescence; also recorded: additional doubling of the change in intensity
- activation of DAG sensor by PDBu added after ionomycin ([4]; subsequent addition after ionomycin, FIG. 4C): activates Downward DAG; also recorded: subsequently activated

Molecule: O=c1ccn([C@@H]2O[C@H](COP(=O)(O)OP(=O)(O)OP(=O)(O)O)[C@@H](O)[C@H]2O)c(=O)[nH]1 [UTP]
- Ca2+ response (R-GECO1) [1]: triggered a Ca2+ response; also recorded: transient increase in Ca2+
- PLC pathway signaling (Upward or Downward DAG2 sensors) [1]: causing a Ca2+ transient in a very different way; also recorded: producing a Ca2+ transient through a different pathway
- signaling at the P2Y11 receptor as reported [2]: only triggers a Ca2+ response

Molecule: C[C@H](CCC(=O)O)C[C@H](C)C[C@H](C)C(=O)/C=C(\O)[C@H](C)C[C@H](C)C/C=C/[C@@H](C)[C@@H](O)[C@@H](C)[C@@H](O)C[C@@H]1CC[C@@](C)([C@H]2CC[C@@](C)([C@@H](C)O)O2)O1 [ionomycin]
- effect of raising intracellular Ca2+ on DAG and PIP2 levels ([5]; ionomycin added before PdBU or M1 receptor activation, FIGS. 6C and D): no apparent effect on the DAG and PIP2 levels
- R-GECO (Ca2+ sensor) response ([5]; ionomycin applied, FIG. 4C): produces a change in R-GECO; also recorded: robust R-GECO1 response
- change in DAG sensor ([5]; ionomycin applied, FIG. 4C): not Downward DAG; also recorded: no detectable change in the DAG sensor

Molecule: Downward DAG: DAG sensor: cpEGFP at K152 of PKC delta truncated at L122; fluorescence decreases upon binding to DAG
- loss (decrease) in fluorescence [6, 9]: 40%
- time over which the fluorescence loss occurs ([6]; mean of 4 cells): 15 s

- change in sensor fluorescence on M1 receptor activation [7]: green fluorescence increases
Molecule: Upward DAG: DAG sensor: cpEGFP at N158 of PKC delta truncated at L122; fluorescence increases upon binding to DAG
- fluorescence increase [6, 9]: 45%

- red fluorescent signal at the membrane with M1 receptor activation [8]: rapidly disappeared
- change in sensor fluorescence on M1 receptor activation [7]: red fluorescence decreases
B1: PIP2 sensor: red fluorescent PIP2 sensor: PH domain of PLCδ fused to each member of the ddRFP pair (protein)
chain 1: MVSKSEEVIKEFMRFKVRLEGSMNGHEFEIEGEGEGRPYEGTQTAKLKVTKGGPLPFAWDILSPQIMYGSKAYVKHPADVPDYMKLSFPEGFKWERVMHFEDGGLVTVTQDTSLQDGTLIYKVKMRGTNFPPDGPVMQKKTLGWDYATERLYPEDGVLKGELLGRLKLKDGGLNLVEFKTIYMAKKPVQLPGYYFVDTKLGITSHNEDYTIVEQYERSEGRHHLGMDELYKRSRAQASNSAVDGTAGPGSMDSGRDFLTLHGLQDDEDLQALLKGSQLLKVKSSSWRRERFYKLQEDCKTIWQESRKVMRTPESQLFSIEDIQEVRMGHRTEGLEKFARDVPEDRCFSIVFKDQRNTLDLIAPSPADAQHWVLGLHKIIHHSGSMDQRQKLQHWIHSCLRKADKNKDNKMSFKELQNFLKELNIQ
chain 2: MVSKGEETIKEFMRFKVRMEGSMNGHEFEIEGEGEGRPYEGTQTAKLKVTKGGPLPFAWDILSPQFMYGSEAYVRHPADIPDYKKLPFPEGFKWERVMNFEDGGLVTVTQDSSLQDGTLICKVKMRGTNFPPDGPVMQKKTMGWEASTEMLYPEDGVLKGHSYQALKLKDGGHYLVEFETIYMAKKPVQLPGDYCVDTKLDITSHNEDYTIVEQYGRSEGRHRLGMDERYKRSRAQASNSAVDGTAGPGSMDSGRDFLTLHGLQDDEDLQALLKGSQLLKVKSSSWRRERFYKLQEDCKTIWQESRKVMRTPESQLFSIEDIQEVRMGHRTEGLEKFARDVPEDRCFSIVFKDQRNTLDLIAPSPADAQHWVLGLHKIIHHSGSMDQRQKLQHWIHSCLRKADKNKDNKMSFKELQNFLKELNIQ
modifications: Synthetic sequence, a.a. sequence of PIP2 sensor fragment [PIP2-A1]; Synthetic sequence, a.a. sequence of PIP2 sensor fragment [PIP2-B1]
notes: red fluorescent PIP2 sensor: PH domain of PLCδ fused to each member of the ddRFP pair
